The values below come from patent US20150093333A1, “COMPOSITIONS, METHODS AND USES FOR PEPTIDES IN DIAGNOSIS, PROGRESSION AND TREATMENT OF CANCERS” (THE REGENTS OF THE UNIVERSITY OF COLORADO, body corporate, priority 2003, published 2015).

One test concerns isolated microvesicles. As to the kind of experiment: Fluorescence enhancement with isolated rat microvesicles. Format: binding. The protocol: In another exemplary method, having established the simultaneous curvature- and PS-sensing by MARCKS-ED in synthetic liposomes, MARCKS-ED was tested on detection of highly curved, PS-enriched particles in a complex biological system. Microvesicles (ø=0.03-1 μm) are highly curved lipid vesicles that shed into body fluids (e.g., blood, urine, ascitic fluid). These vesicles are released by cancerous cells in which lipid asymmetry is de-regulated, contributing to externalization and enrichment of PS on their outer leaflet. The microvesicle detecting ability of MARCKS-ED was investigated using plasma samples from a stressed rat model. […]
Microvesicles in these samples were characterized by TEM imaging, and ELISA of detection of the signature CD63 protein and the membrane transport protein Rab5b exposed on the surface. Particles expressing both proteins were captured by antibodies and quantified in a colorimetric endpoint assay.
These isolated microvesicles were measured by nanoparticle tracking analysis (NTA) to confirm their average size (ø=56 nm). Tracking analyses were performed using the NanoSight LM10-HS instrument (Amesbury, UK) equipped with a 532 nm laser and observed at scatter and fluorescence modes (filter=550 nm). […]
Monitored at λex=295 nm, Annexin-V (0.32 μM) was treated with CaCl2 (3 mM) in TES buffer and with 500 μM lipid vesicles of varying PS content. […]

Test [1] addresses lipid vesicles 60% POPC:15% cholesterol:15% POPE:10% POPS. As to the kind of experiment: Fluorescence anisotropy titration of NBD-labeled MARCKS peptides with lipid vesicles. Format: binding. Here is the method:
In another example, because fluorescence enhancement assays could not distinguish the contributions between different degrees of membrane penetration and binding affinity, fluorescence anisotropy assay was performed to specifically measure the binding affinity of the MARCKS derived peptides. The NBD-labeled peptides (1 μM) were titrated by synthetic liposomes of various sizes (30, 100, and 400 nm). Fluorescence anisotropy was recorded using a Fluorolog-3 fluorometer. The mixture was allowed to equilibrate for 2 minutes prior to the next titration. The excitation wavelength was set to λex=480 nm whereas the emission filter was set to λem=545 nm. The voltage was set to 250 V throughout the experiment. Blank PBS (pH=7.40) was titrated to NBD-labeled peptides as a negative control, where negligible anisotropy change was observed. The following equation was used to determine the dissociation constants as previously reported: Fb=Kp [L]/(1+KP[L]), where Fb expresses the fraction of peptide bound to lipids, Kp expresses the molar partition coefficient and [L] expresses the lipid concentration.
Lipid vesicles were titrated to NBD-labeled MARCKS-ED, MARCKSmut1, or MARCKSmut2 peptides. Since the peptide partitions between the hydrophobic lipid bilayer and the aqueous solvent, the molar partition coefficient is often reported. By definition, the apparent dissociation constant (Kd), described as the lipid concentration where 50% of the peptide is bound, is the reciprocal of the molar partition coefficient (Kp). Fluorescence anisotropy assay results indicated efficient curvature sensing by MARCKS-ED. FIG. 4C represents an exemplary fluorescence anisotropy titration of MARCKS-ED with various lipid vesicles. FIG. 4D provides data of fluoresence anisotropy titration of various MARCKS derived peptides. Lipid vesicles used in the experiments represented by FIGS. 4C-4D contained 60% POPC:15% cholesterol: 15% POPE: 10% POPS. […] As a comparison, C2AB illustrated a 1.9 fold increase in binding to smaller vesicles (105 nm) relative to the larger ones (252 nm). […] In addition, electrostatic interactions of MARCKSmut2 were also compromised. […] Such defects would permit the Phe residue to insert and stabilize the highly curved membranes.

For the sequence KKKKKRFSFKKSFKLSGFSFKKNKK [MARCKS-ED], in the test with isolated microvesicles, the “binding to isolated microvesicles (fluorescence enhancement)” value was “demonstrated to bind to these biological particles”. The Kd (in general, the free concentration of one partner at which half of the binding sites on the other are occupied at equilibrium, for simple one-to-one binding) in test [1] (30 nm pore size lipid vesicles containing 10% PS) amounted to 24 ± 3 µM; in test [1] (100 nm pore size lipid vesicles containing 10% PS), 42 ± 13 µM; in test [1] (400 nm pore size lipid vesicles containing 10% PS), 86 ± 20 µM.
